{
  "source": "patent US12698523B2",
  "about": "“Enhancement of nucleic acid polymerization by aromatic compounds” (priority 2019, dated 2026)",
  "key": {"[1]": {"biological_target": "T1, C4760 DNA polymerase (a variant of DPO4, SEQ ID NO:2) (Saccharolobus solfataricus, UniProt Q97W02, A155G/A42V/D156R/D292Y/D294N/E291S/E324K/E325K/E327K/E63R/E79L/G187P/G299W/I153V/I189F/I248T/I295S/K152A/K317Q/K321Q/K56Y/K78D/L293W/M76W/N188Y/P184Q/Q82W/Q83G/R300S/S297Y/S86E/T290K/T301W/V289W/V296Q)", "T1 construct": "made in house", "T1 sequence (Q97W02 other isoform, or with tags, fused parts or gaps with the stated changes)": "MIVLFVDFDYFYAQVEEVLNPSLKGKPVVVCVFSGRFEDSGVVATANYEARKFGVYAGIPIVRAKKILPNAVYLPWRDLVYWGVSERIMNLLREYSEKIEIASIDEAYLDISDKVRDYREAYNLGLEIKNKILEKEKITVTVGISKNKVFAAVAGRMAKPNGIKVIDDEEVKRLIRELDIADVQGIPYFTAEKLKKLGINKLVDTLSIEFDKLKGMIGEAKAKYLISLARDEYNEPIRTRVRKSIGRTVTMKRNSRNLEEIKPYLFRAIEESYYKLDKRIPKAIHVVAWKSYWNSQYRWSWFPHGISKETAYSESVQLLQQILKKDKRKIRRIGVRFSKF", "assay": "Primer extension on a 45mer RNA template derived from the HIV2 genome sequence", "assay_type": "biochemical, Sulfolobus solfataricus", "conditions": "2 Mm PEM; 45mer RNA template from HIV2 genome; 30 minutes at 37° C.", "experimental": "To begin to investigate the potential of PEMs to enhance diverse polymerase reactions, the ability of PEMS to enable DNA polymerase to utilize RNA as a template was tested. An initial screen of several compounds set forth in Table I was conducted using a 45mer RNA template derived from the HIV2 genome sequence. Primer extension reactions included the following reagents: 50 Mm TrisCl, 200 Mm NH4Oac, 20% PEG8K, 5% NMS, 0.6 nmol PP-60.20, 0.6 Mm MnCl2, 2 μg Kod single-strand binding protein (SSB), 1 M urea, 50 pmol each XNTP, 0.5 pmol template, 0.5 pmol oligonucleotide primer, 1.2 μg purified recombinant C4760 DNA polymerase (a variant of DPO4, see SEQ ID NO:2), and 2 Mm PEM. 10 μL primer extension reactions were run for 30 minutes at 37° C. and reaction products were analyzed by gel electrophoresis."}, "[2]": {"biological_target": "T1, C4760 DNA polymerase (a variant of DPO4, SEQ ID NO:2)", "assay": "Primer extension assay with the HIV2 100mer template", "assay_type": "biochemical, Sulfolobus solfataricus", "conditions": "for polymerization of XNTPs into full length Xpandomer copies (PEM activity): HIV2 100mer template, Eco SSB, 30 minutes at 23° C.", "experimental": "PEM activity of compound 12 was tested in primer extension assays using the HIV2 100mer template. Primer extension reactions included the following reagents: 50 Mm TrisCl, 200 Mm NH4Oac, 20% PEG8K, 5% NMS, 0.6 nmol PP-60.20, 0.6 Mm MnCl2, 2.75 μg/μl Eco single-strand binding protein (SSB), 1 M urea, 50 pmol each XNTP, 1.1 pmol template, 1 pmol oligonucleotide primer, 1.2 μg/μl purified recombinant C4760 DNA polymerase (SEQ ID NO:2), and 0.5, 1, or 1.5 Mm PEM. 10 μL primer extension reactions were run for 30 minutes at 23° C. and reaction products were analyzed by gel electrophoresis. […] Lanes 2-4 show primer extension products from reactions with a structurally related additive lacking robust PEM activity.\nPEM activity of compounds 13 and 14 was tested in primer extension assays using the HIV2 100mer template. Primer extension reactions included the following reagents: 50 Mm TrisCl, 200 Mm NH4Oac, 20% PEG8K, 5% NMS, 0.6 nmol PP-60.20, 0.6 Mm MnCl2, 2.75 μg/μl Eco single-strand binding protein (SSB), 1 M urea, 50 pmol each XNTP, 1.1 pmol template, 1 pmol oligonucleotide primer, 1.2 μg/μl purified recombinant C4760 DNA polymerase (a variant of DPO4, see SEQ ID NO:2), and 0.5, 1, 1.52, or 2.5 Mm PEM. 10 μL primer extension reactions were run for 30 minutes at 23° C. and reaction products were analyzed by gel electrophoresis. A representative gel showing primer extension products is presented in FIG. 11 (the position of the full length HIV2 100mer is indicated by the arrow).\nPEM activity of compounds 16, 17, and 18 and combinations thereof were tested in primer extension assays using the HIV2-derived 100mer template. Primer extension reactions included the following reagents: 50 Mm TrisCl, 200 Mm NH4Oac, 20% or 25% PEG8K, 5% NMS, 0.6 nmol PP-60.20, 0.6 Mm MnCl2, 2 μg Kod single-strand binding protein (SSB), 1 M urea, 50 pmol each XNTP, 1 pmol template, 1 pmol oligonucleotide primer, 1.2 μg purified recombinant C4760 DNA polymerase (a variant of DPO4, see SEQ ID NO:2), and 0.5-2 Mm PEM. 10 μL primer extension reactions were run for 30 minutes at 37° C. and reaction products were analyzed by gel electrophoresis. A representative gel showing primer extension products is presented in FIG. 13 (the position of a 100mer product is indicated by the arrow)."}, "[3]": {"conditions": "0.5, 1, 1.52, or 2.5 Mm PEM, FIG. 11"}},
  "data": [
    {"smiles": "CCNC(=O)c1cc(-c2cn(-c3ccc(C(=O)NCC(=O)O)c(C(F)(F)F)c3)nn2)nc(-c2cn(-c3ccc(C(=O)NCC(=O)O)c(C(F)(F)F)c3)nn2)c1", "note": "[Compound 110, 2,2′-((4,4′-((4-(ethylcarbamoyl)pyridine-2,6-diyl)bis(1H-1,2,3-triazole-4,1-diyl))bis(2-(trifluoromethyl)benzoyl))bis(azanediyl))diacetic acid]", "values": [
      {"measurement": "PEM activity on an RNA template", "setting": "[1]", "value": "display PEM activity on an RNA template"}
    ]},
    {"smiles": "CCNC(=O)c1cc(-c2cn(-c3ccc(C(=O)O)c(F)c3)nn2)nc(-c2cn(-c3ccc(C(=O)O)c(F)c3)nn2)c1", "note": "[Compound 76, 4,4′-((4-(ethylcarbamoyl)pyridine-2,6-diyl)bis(1H-1,2,3-triazole-4,1-diyl))bis(2-fluorobenzoic acid)]", "values": [
      {"measurement": "PEM activity on an RNA template", "setting": "[1]", "value": "display PEM activity on an RNA template"}
    ]},
    {"smiles": "CCNC(=O)c1cc(-c2cn(-c3ccc(C(F)(F)F)c(C(=O)O)c3)nn2)nc(-c2cn(-c3ccc(C(F)(F)F)c(C(=O)O)c3)nn2)c1", "note": "[Compound 75, 5,5′-((4-(ethylcarbamoyl)pyridine-2,6-diyl)bis(1H-1,2,3-triazole-4,1-diyl))bis(2-(trifluoromethyl)benzoic acid)]", "values": [
      {"measurement": "PEM activity on an RNA template", "setting": "[1]", "value": "display PEM activity on an RNA template"}
    ]},
    {"smiles": "CCNC(=O)c1cc(-n2cc(-c3ccc(C(=O)O)c(C(F)(F)F)c3)nn2)cc(-n2cc(-c3ccc(C(=O)O)c(C(F)(F)F)c3)nn2)c1", "note": "[Compound 116, 4,4′-((5-(ethylcarbamoyl)-1,3-phenylene)bis(1H-1,2,3-triazole-1,4-diyl))bis(2-(trifluoromethyl)benzoic acid)]", "values": [
      {"measurement": "PEM activity on an RNA template", "setting": "[1]", "value": "display PEM activity on an RNA template"}
    ]},
    {"smiles": "CCN(CC)C(=O)c1cc(-c2cn(-c3ccc(C(=O)O)c(O)c3)nn2)nc(-c2cn(-c3ccc(C(=O)O)c(O)c3)nn2)c1", "note": "[Compound 49, 4,4′-((4-(diethylcarbamoyl)pyridine-2,6-diyl)bis(1H-1,2,3-triazole-4,1-diyl))bis(2-hydroxybenzoic acid)]", "values": [
      {"measurement": "PEM activity on an RNA template", "setting": "[1]", "value": "display PEM activity on an RNA template"}
    ]},
    {"smiles": "CNC(=O)c1cc(-c2cn(-c3ccc(C(=O)O)c(O)c3)nn2)nc(-c2cn(-c3ccc(C(=O)O)c(O)c3)nn2)c1", "note": "[Compound 18, 4,4′-((4-(methylcarbamoyl)pyridine-2,6-diyl)bis(1H-1,2,3-triazole-4,1-diyl))bis(2-hydroxybenzoic acid)]", "values": [
      {"measurement": "polymerization of XNTPs into full length copies, combination of PEMs", "setting": "[2]; combination of 2 Mm compound 16 and 0.1 Mm or 0.3 Mm compound 18, HIV2-derived 100mer template, FIG. 13 lanes 10-12", "value": "enable polymerization of XNTPS into full length copies of the 100mer template"}
    ]},
    {"smiles": "O=C(NCCO)c1cc(-c2cn(-c3ccc(C(=O)O)c(C(F)(F)F)c3)nn2)nc(-c2cn(-c3ccc(C(=O)O)c(C(F)(F)F)c3)nn2)c1", "note": "[Compound 105, 4,4′-((4-((2-hydroxyethyl)carbamoyl)pyridine-2,6-diyl)bis(1H-1,2,3-triazole-4,1-diyl))bis(2-(trifluoromethyl)benzoic acid)]", "values": [
      {"measurement": "PEM activity on an RNA template", "setting": "[1]", "value": "display PEM activity on an RNA template"}
    ]},
    {"smiles": "O=C(O)c1ccc(-n2cc(-c3ccc(-c4cn(-c5ccc(C(=O)O)c(C(F)(F)F)c5)nn4)o3)nn2)cc1C(F)(F)F", "note": "[Compound 118, 4,4′-(furan-2,5-diylbis(1H-1,2,3-triazole-4,1-diyl))bis(2-(trifluoromethyl)benzoic acid)]", "values": [
      {"measurement": "PEM activity on an RNA template", "setting": "[1]", "value": "display PEM activity on an RNA template"}
    ]},
    {"smiles": "CCOC(=O)c1cc(-c2cn(-c3ccc(C(=O)O)c(O)c3)nn2)nc(-c2cn(-c3ccc(C(=O)O)c(O)c3)nn2)c1", "note": "[Compound 14, 4,4′-((4-(ethoxycarbonyl)pyridine-2,6-diyl)bis(1H-1,2,3-triazole-4,1-diyl))bis(2-hydroxybenzoic acid)]", "values": [
      {"measurement": "polymerization of XNTPs into full length Xpandomer copies (PEM activity)", "setting": "[2]; [3]", "value": "enables polymerization of XNTPs into full length Xpandomer copies of the 100mer template in a manner comparable to that of compound 10"},
      {"measurement": "polymerization of XNTPs into lengthy Xpandomer copies, combination of PEMs", "setting": "[2]; combination of 2 Mm compound 14 and 0.1 Mm or 0.3 Mm compound 17, HIV2-derived 100mer template, FIG. 13 lanes 7-9", "value": "also enabled polymerization of XNTPs into lengthy Xpandomer copies of the 100mer template"}
    ]},
    {"smiles": "CCNC(=O)c1cc(-c2cn(-c3ccc(C(=O)O)c(C(F)(F)F)c3)nn2)nc(-c2cn(-c3ccc(C(=O)O)c(C(F)(F)F)c3)nn2)c1", "note": "[Compound 73, 4,4′-((4-(ethylcarbamoyl)pyridine-2,6-diyl)bis(1H-1,2,3-triazole-4,1-diyl))bis(2-(trifluoromethyl)benzoic acid)]", "values": [
      {"measurement": "PEM activity on an RNA template", "setting": "[1]", "value": "display PEM activity on an RNA template"}
    ]},
    {"smiles": "CCNC(=O)c1cc(-c2cn(-c3cc(C(=O)O)cc(C(F)(F)F)c3)nn2)nc(-c2cn(-c3cc(C(=O)O)cc(C(F)(F)F)c3)nn2)c1", "note": "[Compound 93, 5,5′-((4-(ethylcarbamoyl)pyridine-2,6-diyl)bis(1H-1,2,3-triazole-4,1-diyl))bis(3-(trifluoromethyl)benzoic acid)]", "values": [
      {"measurement": "PEM activity on an RNA template", "setting": "[1]", "value": "display PEM activity on an RNA template"}
    ]},
    {"smiles": "CCNC(=O)c1cc(-c2cn(-c3ccc(C(=O)O)c([N+](=O)[O-])c3)nn2)nc(-c2cn(-c3ccc(C(=O)O)c([N+](=O)[O-])c3)nn2)c1", "note": "[Compound 106, 4,4′-((4-(ethylcarbamoyl)pyridine-2,6-diyl)bis(1H-1,2,3-triazole-4,1-diyl))bis(2-nitrobenzoic acid)]", "values": [
      {"measurement": "PEM activity on an RNA template", "setting": "[1]", "value": "display PEM activity on an RNA template"}
    ]},
    {"smiles": "O=C(O)c1ccc(-n2cc(-c3cc(C(=O)N4CCOCC4)cc(-c4cn(-c5ccc(C(=O)O)c(O)c5)nn4)n3)nn2)cc1O", "note": "[Compound 51, 4,4′-((4-(morpholine-4-carbonyl)pyridine-2,6-diyl)bis(1H-1,2,3-triazole-4,1-diyl))bis(2-hydroxybenzoic acid)]", "values": [
      {"measurement": "PEM activity on an RNA template", "setting": "[1]", "value": "display PEM activity on an RNA template"}
    ]},
    {"smiles": "N#Cc1cc(-c2cn(-c3ccc(O)c(C(=O)O)c3)nn2)nc(-c2cn(-c3ccc(O)c(C(=O)O)c3)nn2)c1", "note": "[Compound 12, 5,5′-((4-cyanopyridine-2,6-diyl)bis(1H-1,2,3-triazole-4,1-diyl))bis(2-hydroxybenzoic acid)]", "values": [
      {"measurement": "polymerization of XNTPs into full length Xpandomer copies (PEM activity)", "setting": "[2]; 0.5, 1, or 1.5 Mm PEM, FIG. 10", "value": "enables polymerization of XNTPs into full length Xpandomer copies of the 100mer template"}
    ]},
    {"smiles": "Cc1cc(-c2cn(-c3ccc(C(=O)O)c(O)c3)nn2)nc(-c2cn(-c3ccc(C(=O)O)c(O)c3)nn2)c1", "note": "[Compound 13, 4,4′-((4-methylpyridine-2,6-diyl)bis(1H-1,2,3-triazole-4,1-diyl))bis(2-hydroxybenzoic acid)]", "values": [
      {"measurement": "polymerization of XNTPs into full length Xpandomer copies (PEM activity)", "setting": "[2]; [3]", "value": "enables polymerization of XNTPs into full length Xpandomer copies of the 100mer template in a manner comparable to that of compound 10"}
    ]}
  ]
}
